Calls of active or inactive are those of the source.
Tests used:
[1] = tested on: BJ; experiment: cytotoxicity toward BJ-TERT fibroblasts, dose response, cell-based, RAS-independent, luminescence (AID 1933); format: functional; conditions: Homo sapiens
[2] = tested on: BJ; experiment: cytotoxicity toward BJ-TERT-LT-ST fibroblasts, dose response, cell-based, RAS-independent, luminescence (AID 1935); format: functional; conditions: Homo sapiens;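 also: BJ fibroblasts immortalized with TERT plus LT and ST oncogenes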
[3] = tested on: INS1; experiment: beta cell apoptosis inhibitors, cytokine rescue, dose response, luminescence, retest (AID 449756); format: functional, cell-based; conditions: Rattus norvegicus;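 also: cell death triggered by IL-1 beta plus TNF-alpha plus IFN-gamma mixture; protective hits raise ATP signal compared with cytokine alone wells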
[4] = control 3'UTR Renilla luciferase suppression, dose response, counter-screen for Shn3 inhibitor project, cell-based, Clone20-Shn3RL, cherry-picked (AID 624133); format: functional
[5] = HepG2 cell cytotoxicity, dose response, cytotoxicity control for Shn3 inhibitor project, CellTiter-Glo, cherry-picked (AID 624134); format: functional, cell-based
[6] = tested on: BJ; experiment: cytotoxicity toward Ras-transformed BJeLR fibroblasts, dose response, cell-based, alamar blue fluorescence, cherrypicked samples (AID 2631); format: functional; conditions: Homo sapiens;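 also: confirmatory dose-response assay in RAS-dependent BJ fibroblasts engineered with TERT, LT and ST, with cytotoxicity read by fluorescence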
[7] = tested on: BJ; experiment: cells; format: functional, cell-based; conditions: Homo sapiens
[8] = cytotoxicity toward DRD oncogenic fibroblasts, dose response, cell-based, non-viral oncogenic, luminescence (AID 1934); format: functional; conditions: Homo sapiens
[9] = Shn3 3'UTR reporter inhibitors, dose response, cell-based, Clone20 osteoblasts, firefly luciferase, cherry-picked (AID 624132); format: functional;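 also: firefly luciferase luminescence from reporter carrying the Shn3 3'UTR in osteoblasts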
[10] = target: T1, Sentrin-specific protease 6 (Homo sapiens, UniProt Q9GZR1); format: functional;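 also: Luminescence-based dose-response confirmatory assay of SENP6 inhibition, following up an ultra-high-throughput screen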
T1 sequence (Q9GZR1 whole entry): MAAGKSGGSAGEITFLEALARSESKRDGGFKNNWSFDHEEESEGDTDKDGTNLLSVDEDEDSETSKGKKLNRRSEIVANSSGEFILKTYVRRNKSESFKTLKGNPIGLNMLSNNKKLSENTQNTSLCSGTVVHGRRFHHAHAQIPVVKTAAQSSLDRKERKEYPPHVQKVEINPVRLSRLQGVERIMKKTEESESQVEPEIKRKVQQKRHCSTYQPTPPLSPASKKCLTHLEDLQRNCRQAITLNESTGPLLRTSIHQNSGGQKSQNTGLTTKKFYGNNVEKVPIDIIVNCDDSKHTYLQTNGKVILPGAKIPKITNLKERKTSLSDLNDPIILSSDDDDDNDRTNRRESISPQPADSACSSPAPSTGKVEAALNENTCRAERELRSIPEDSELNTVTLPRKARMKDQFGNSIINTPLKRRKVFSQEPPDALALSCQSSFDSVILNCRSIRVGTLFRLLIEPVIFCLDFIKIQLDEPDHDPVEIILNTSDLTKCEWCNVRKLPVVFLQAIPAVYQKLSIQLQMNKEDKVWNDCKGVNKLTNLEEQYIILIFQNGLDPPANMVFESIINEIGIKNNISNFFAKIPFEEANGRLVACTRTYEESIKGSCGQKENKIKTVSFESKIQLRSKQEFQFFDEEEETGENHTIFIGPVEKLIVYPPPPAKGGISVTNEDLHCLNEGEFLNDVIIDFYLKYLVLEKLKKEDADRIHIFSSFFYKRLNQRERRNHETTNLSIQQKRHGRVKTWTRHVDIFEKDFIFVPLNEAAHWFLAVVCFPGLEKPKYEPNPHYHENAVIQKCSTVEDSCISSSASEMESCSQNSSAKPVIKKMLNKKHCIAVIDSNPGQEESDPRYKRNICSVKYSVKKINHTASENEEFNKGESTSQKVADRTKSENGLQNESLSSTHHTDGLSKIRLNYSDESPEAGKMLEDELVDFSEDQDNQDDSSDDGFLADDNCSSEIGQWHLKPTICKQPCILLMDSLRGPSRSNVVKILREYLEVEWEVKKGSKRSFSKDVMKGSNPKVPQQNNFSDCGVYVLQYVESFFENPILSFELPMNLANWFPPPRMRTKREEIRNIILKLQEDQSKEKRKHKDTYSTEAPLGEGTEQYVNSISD

[11] = target: T2, Caspase-3 (Homo sapiens, UniProt P42574); format: functional;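 also: Dose-response selectivity test against caspase-3 for candidate inhibitors of sentrin-specific proteases (SENPs)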
T2 sequence (P42574 whole entry): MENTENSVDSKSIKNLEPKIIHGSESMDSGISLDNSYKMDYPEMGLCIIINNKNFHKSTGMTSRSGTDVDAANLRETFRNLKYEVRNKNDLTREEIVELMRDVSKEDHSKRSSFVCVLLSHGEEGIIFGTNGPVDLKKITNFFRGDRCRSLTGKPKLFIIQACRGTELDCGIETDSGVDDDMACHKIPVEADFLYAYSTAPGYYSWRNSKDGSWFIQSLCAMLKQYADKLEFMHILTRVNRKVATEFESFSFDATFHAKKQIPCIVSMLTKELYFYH

[12] = target: T3, Sentrin-specific protease 7 (Homo sapiens, UniProt Q9BQF6); format: functional;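 also: Luminescence-based dose-response confirmation of ultra-high-throughput screening hits, measuring inhibition of SENP7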
T3 sequence (Q9BQF6 whole entry): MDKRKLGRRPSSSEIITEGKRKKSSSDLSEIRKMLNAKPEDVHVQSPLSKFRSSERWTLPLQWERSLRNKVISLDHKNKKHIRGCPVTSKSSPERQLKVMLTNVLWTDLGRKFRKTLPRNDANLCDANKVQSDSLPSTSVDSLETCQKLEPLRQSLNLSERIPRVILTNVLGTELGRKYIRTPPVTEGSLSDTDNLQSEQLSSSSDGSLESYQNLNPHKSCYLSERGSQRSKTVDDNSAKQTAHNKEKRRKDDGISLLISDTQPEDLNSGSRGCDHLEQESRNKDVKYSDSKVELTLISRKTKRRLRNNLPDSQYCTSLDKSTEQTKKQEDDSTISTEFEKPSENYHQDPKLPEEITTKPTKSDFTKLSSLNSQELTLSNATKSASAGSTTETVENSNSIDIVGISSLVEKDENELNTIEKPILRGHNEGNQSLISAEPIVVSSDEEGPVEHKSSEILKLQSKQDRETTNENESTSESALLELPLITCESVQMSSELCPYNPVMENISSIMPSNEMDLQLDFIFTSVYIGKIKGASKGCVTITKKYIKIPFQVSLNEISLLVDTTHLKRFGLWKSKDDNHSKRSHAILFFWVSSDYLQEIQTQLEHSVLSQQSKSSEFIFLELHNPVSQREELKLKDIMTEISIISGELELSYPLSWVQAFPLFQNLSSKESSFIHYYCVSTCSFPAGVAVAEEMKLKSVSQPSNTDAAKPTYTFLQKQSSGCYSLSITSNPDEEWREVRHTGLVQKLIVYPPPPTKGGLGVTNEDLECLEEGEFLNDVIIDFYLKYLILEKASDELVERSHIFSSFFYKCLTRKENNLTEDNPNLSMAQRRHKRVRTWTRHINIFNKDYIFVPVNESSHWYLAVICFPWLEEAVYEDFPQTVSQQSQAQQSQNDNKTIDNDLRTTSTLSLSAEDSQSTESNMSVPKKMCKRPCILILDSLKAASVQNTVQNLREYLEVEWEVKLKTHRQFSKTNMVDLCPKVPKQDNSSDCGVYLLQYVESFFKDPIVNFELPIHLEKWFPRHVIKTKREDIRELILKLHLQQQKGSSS

[13] = target: T4, Sentrin-specific protease 8 (Homo sapiens, UniProt Q96LD8); format: functional;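 also: luminescence read-out of SENP8 inhibition, dose-response confirmation following an ultra-high-throughput screen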
T4 sequence (Q96LD8 whole entry): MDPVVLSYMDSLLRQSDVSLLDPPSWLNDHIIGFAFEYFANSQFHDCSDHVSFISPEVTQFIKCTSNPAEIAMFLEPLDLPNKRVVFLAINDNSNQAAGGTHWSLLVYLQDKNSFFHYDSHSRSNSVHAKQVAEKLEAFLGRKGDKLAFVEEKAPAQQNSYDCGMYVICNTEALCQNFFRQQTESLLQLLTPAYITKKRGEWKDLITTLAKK

[14] = tested on: P388/ADR; experiment: cells; format: functional; conditions: Mus musculus
[15] = tested on: SN12K1; experiment: cells; format: functional; conditions: Homo sapiens
[16] = tested on: P388; experiment: cells; format: functional; conditions: Mus musculus
[17] = target: T5, Protein skinhead-1 (Caenorhabditis elegans, UniProt P34707); format: functional
T5 sequence (P34707 whole entry): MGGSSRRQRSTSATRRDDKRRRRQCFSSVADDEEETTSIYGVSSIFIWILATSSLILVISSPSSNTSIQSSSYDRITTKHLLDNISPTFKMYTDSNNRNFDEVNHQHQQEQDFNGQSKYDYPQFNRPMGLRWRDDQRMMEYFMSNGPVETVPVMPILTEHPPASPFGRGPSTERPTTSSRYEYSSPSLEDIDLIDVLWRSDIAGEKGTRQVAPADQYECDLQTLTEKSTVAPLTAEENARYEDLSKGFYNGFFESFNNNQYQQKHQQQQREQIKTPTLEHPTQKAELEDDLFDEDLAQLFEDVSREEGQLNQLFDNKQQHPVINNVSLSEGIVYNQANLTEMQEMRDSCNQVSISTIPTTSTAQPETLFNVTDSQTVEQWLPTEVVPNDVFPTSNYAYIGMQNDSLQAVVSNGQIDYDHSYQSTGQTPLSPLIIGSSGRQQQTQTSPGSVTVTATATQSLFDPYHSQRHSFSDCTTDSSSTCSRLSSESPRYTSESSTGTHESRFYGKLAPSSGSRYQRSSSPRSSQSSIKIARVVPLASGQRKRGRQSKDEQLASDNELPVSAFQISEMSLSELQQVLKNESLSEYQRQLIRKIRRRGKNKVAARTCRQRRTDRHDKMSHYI

[18] = target: Beta Lactamase (Pseudomonas aeruginosa, UniProt Q932Y6); experiment: beta-lactamase reporter inhibitor potency, dose response, artefact control for TLR9-MyD88 binding inhibitor project, BLA reporter cells, FRET fluorescence (AID 588341); format: cell-based;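 also: cell based assay in CHO-K1 cells stably expressing beta-lactamase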
Chain of Beta Lactamase (Q932Y6 whole entry): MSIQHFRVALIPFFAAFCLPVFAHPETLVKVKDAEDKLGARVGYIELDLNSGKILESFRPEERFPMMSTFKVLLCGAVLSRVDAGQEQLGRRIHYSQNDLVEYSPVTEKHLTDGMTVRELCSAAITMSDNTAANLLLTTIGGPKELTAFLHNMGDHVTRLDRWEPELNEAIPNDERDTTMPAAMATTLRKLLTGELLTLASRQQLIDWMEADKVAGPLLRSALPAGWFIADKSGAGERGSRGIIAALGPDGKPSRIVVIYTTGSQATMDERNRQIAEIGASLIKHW

[19] = target: Heat shock protein HSP 90-alpha (Homo sapiens, UniProt P07900); format: functional, organism-based
[20] = tested on: CHO; experiment: cytotoxicity in TLR9-MyD88 CHO cells, dose response, cytotoxicity control for TLR9-MyD88 binding inhibitor project, cell-based, luminescence (AID 588339); format: functional, hamster; conditions: Cricetulus griseus;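 also: CHO cells stably coexpressing TLR9 and MyD88 fusions from primary screen; compound exposure lasted 48 hours before viability readout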
[21] = target: Glucose-6-phosphate 1-dehydrogenase (Homo sapiens, UniProt P11413); experiment: human G6PD enzyme inhibitors, dose response, selectivity assay for P. falciparum G6PD inhibitor project, biochemical, fluorescence (AID 504792); format: functional
Chain of Glucose-6-phosphate 1-dehydrogenase (P11413 whole entry): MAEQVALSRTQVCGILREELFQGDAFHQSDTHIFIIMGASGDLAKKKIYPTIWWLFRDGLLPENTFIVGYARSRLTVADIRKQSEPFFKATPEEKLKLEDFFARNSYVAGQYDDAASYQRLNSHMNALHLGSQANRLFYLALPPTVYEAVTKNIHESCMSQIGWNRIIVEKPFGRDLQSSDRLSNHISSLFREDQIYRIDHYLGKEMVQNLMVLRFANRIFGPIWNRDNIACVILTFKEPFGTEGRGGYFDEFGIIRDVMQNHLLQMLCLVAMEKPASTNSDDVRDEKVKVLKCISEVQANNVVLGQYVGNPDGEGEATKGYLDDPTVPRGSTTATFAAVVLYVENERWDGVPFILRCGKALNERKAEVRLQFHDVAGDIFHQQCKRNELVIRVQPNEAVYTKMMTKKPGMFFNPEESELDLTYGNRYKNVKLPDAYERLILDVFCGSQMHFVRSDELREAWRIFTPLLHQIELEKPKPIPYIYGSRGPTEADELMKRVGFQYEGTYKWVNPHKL

[22] = tested on: Streptococcus; experiment: Group A Streptococcus viability loss, dose response, counter-screen for streptokinase expression inhibitor project, luminescence, BacTiterGlo (AID 1915); format: functional, organism-based;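 also: potency for reduction of bacterial viability or growth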
[23] = tested on: Streptococcus sp. 'group A'; experiment: growth inhibition of control SK(-) GAS strain, dose response, counter-screen for streptokinase expression inhibitor project, luminescence, kanamycin, BacTiterGlo, confirmation (AID 1900); format: functional, organism-based
[24] = target: T6, Streptokinase A (Streptococcus pyogenes serotype M1, UniProt P10520); experiment: S. pyogenes streptokinase expression inhibitors, potency, dose response, plasminogen activation absorbance, OD405 (AID 1914); format: functional, Streptococcus pyogenes M1 GAS;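 also: secreted streptokinase activity via plasminogen activation per viability signal from cell pellet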
T6 sequence (P10520 whole entry): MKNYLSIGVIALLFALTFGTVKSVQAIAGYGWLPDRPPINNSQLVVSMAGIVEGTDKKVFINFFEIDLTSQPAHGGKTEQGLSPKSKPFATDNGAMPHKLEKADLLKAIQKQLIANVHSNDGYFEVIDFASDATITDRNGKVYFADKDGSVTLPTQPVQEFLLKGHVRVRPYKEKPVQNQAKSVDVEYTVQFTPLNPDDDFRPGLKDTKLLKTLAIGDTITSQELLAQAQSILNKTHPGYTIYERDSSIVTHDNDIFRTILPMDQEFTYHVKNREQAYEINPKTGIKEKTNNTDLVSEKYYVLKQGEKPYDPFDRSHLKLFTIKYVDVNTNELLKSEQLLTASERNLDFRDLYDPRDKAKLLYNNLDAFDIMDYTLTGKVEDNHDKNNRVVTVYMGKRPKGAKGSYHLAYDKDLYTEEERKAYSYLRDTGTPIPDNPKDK

Row | Structure (SMILES) | IC50 [10] | IC50 [11] | IC50 [12] | IC50 [13] | GI50 [14] | GI50 [15] | GI50 [16] | further results
1 | Cc1cccc(NC(=O)/C=C/c2ccc([N+](=O)[O-])s2)c1 |  |  |  |  |  |  |  | EC50 [1]: 4.95 µM (inconclusive); EC50 [2]: 4.67 µM (inconclusive); AC50 [3]: 7.91 µM (active); AC50 [4]: 13.5 µM (active); AC50 [5]: 9.74 µM (active); EC50 [6]: 0.531 µM (active); EC50 [7]: 15.7 µM (active); EC50 [8]: 4.68 µM (active); AC50 [9]: 3.29 µM (active)
2 | Cc1ccc(Nc2ncnc3c2oc2ccccc23)cc1 | > 100 µM (inactive) | 28 µM (active) | 5.1 µM (active) | > 100 µM (inactive) |  |  |  | 
3 | O=C(NN1C(=O)CSC1c1ccc(C(F)(F)F)cc1)c1ccncc1 (configuration not stated) |  |  |  |  | > 67.6 µM (inactive) | > 100 µM (inactive) | > 100 µM (inactive) | 
4 | CCOC(=O)CCc1c(C)c2c(O)cc(O)cc2oc1=O |  |  |  |  | 14 µM (inactive) | > 94.2 µM (inactive) | 3.77 µM (inactive) | 
5 | CCOC(=O)c1cc2ccc3ccccc3c2s1 | 70.9 µM (active) | 49.5 µM (active) | 10.5 µM (active) | > 100 µM (inactive) |  |  |  | 
6 | N/C(S)=N/N=C/c1ncccc1O |  |  |  |  | 0.366 µM (active) | 0.382 µM (active) | 0.347 µM (active) | 
7 | CCCOC(=O)c1ccc(NC(=O)/C=C/c2cccs2)cc1 | 69.7 µM (active) | 62.9 µM (active) | 12.9 µM (active) | 70.2 µM (active) |  |  |  | IC50 [17]: > 100 µM (inactive)
8 | Nc1c(S(=O)(=O)O)cc(S(=O)(=O)O)c2ccc(/N=N/c3ccc(/C=C/c4ccc(/N=N/c5ccc6c(S(=O)(=O)O)cc(S(=O)(=O)O)c(N)c6c5O)cc4S(=O)(=O)O)c(S(=O)(=O)O)c3)c(O)c12 |  |  |  |  |  | > 100 µM (inactive) | 73.5 µM (inactive) | 
9 | CC(=O)Nc1ccc2c(c1)Cc1cc(N3C(=O)C=CC3=O)ccc1-2 |  |  |  |  |  |  |  | IC50 [18]: 7.23 µM (active); AC50 [19]: 0.68 µM (active); IC50 [20]: 1.86 µM (active); IC50 [21]: > 80 µM (inactive)
10 | Cc1cccc(NCc2nc3ccccc3n2Cc2ccccc2)c1 | 37.7 µM (active) | 44.6 µM (active) | 12.7 µM (active) | 54.9 µM (active) |  |  |  | EC50 [22]: > 150 µM (not active); EC50 [23]: 8.81 µM (active); EC50 [24]: > 150 µM (not active)
11 | N/C(=N\O)N/N=C/c1ncccc1O |  |  |  |  | 1.52 µM (inactive) | 3.52 µM (inactive) | 1.67 µM (inactive) | 
